US20230331777A1, “NOVEL PEPTOID COMPOUNDS THAT BIND TO CELL RECEPTOR ACE2 AND PREVENT VIRUS ENTRY INTO CELLS” (priority 2020, published 2023)
Starred links: 1 amine or outer side, 2 acyl side, 3 side chain; linkers in the order of their positions; H or OH if unused. Positions of bridges follow the written chain, without caps; N, C: chain ends. Non-standard residues stand in square brackets, D forms with d. Residues, ends and D or L forms follow the SMILES beside them. Chains are numbered I, II in the order given. N(4-MeOBn)Gly = COc1ccc(CNCC(=O)O)cc1; N((CH2)3OiPr)Gly = CC(C)OCCCNCC(=O)O; X1 = CC(c1ccccc1)N(CC(=O)[*:2])[*:1]; NAllylGly = C=CCNCC(=O)O; Nleu = CC(C)CNCC(=O)O; Nme = COCCNCC(=O)O

Test system: SARS-CoV-2 D614G pseudovirus
Type: cell-based, human H1299 cells

Structure (SMILES) | SARS-CoV-2 mutant pseudovirus infection
C=CCN(CC(=O)N(CC(=O)NC(CCCCN)C(=O)NC(CCSC)C(=O)NCCCCC(NC(=O)C(CCSC)NC(=O)C(CCCCN)NC(=O)CN(C(=O)CN(CC=C)C(=O)CN(Cc1ccc(OC)cc1)C(=O)CN(C(=O)CN(CCOC)C(=O)CNCC(C)C)C(C)c1ccccc1)C(C)c1ccccc1)C(N)=O)C(C)c1ccccc1)C(=O)CN(Cc1ccc(OC)cc1)C(=O)CN(C(=O)CN(CCOC)C(=O)CNCC(C)C)C(C)c1ccccc1 (centres unmarked) [ACE2P1D1] (I: H-[Nleu][Nme][X1][N(4-MeOBn)Gly][NAllylGly][X1]KMK-NH2 / II: H-[Nleu][Nme][X1][N(4-MeOBn)Gly][NAllylGly][X1]KM; amide I:9-II:C; configuration not given here) | effective in inhibiting SARS-CoV-2 mutant pseudovirus infection
COCCN(CC(=O)NC(CCCCN)C(=O)NC(CCSC)C(=O)NCCCCC(NC(=O)C(CCSC)NC(=O)C(CCCCN)NC(=O)CN(CCOC)C(=O)CN(CC(C)C)C(=O)CN(CC(C)C)C(=O)CN(CCCOC(C)C)C(=O)CN(Cc1ccc(OC)cc1)C(=O)CNCc1ccc(OC)cc1)C(N)=O)C(=O)CN(CC(C)C)C(=O)CN(CC(C)C)C(=O)CN(CCCOC(C)C)C(=O)CN(Cc1ccc(OC)cc1)C(=O)CNCc1ccc(OC)cc1 (centres unmarked) [ACE2P2D1] (I: H-[N(4-MeOBn)Gly][N(4-MeOBn)Gly][N((CH2)3OiPr)Gly][Nleu][Nleu][Nme]KMK-NH2 / II: H-[N(4-MeOBn)Gly][N(4-MeOBn)Gly][N((CH2)3OiPr)Gly][Nleu][Nleu][Nme]KM; amide I:9-II:C; configuration not given here) | effective in inhibiting SARS-CoV-2 mutant pseudovirus infection
